According to ChEMBL document CHEMBL5131424, “Synthesis and evaluation of antibacterial and trypanocidal activity of derivatives of monensin A” (Bioorg Med Chem Lett, 2022):
≈ marks a conversion by molar mass, not a printed value.

Experiments:
Pseudomonas aeruginosa [1] = assay: Antibacterial activity against Pseudomonas aeruginosa […]; assay type: functional
[2] = test system: Staphylococcus epidermidis; assay: Antibacterial activity against Staphylococcus epidermidis 829/19; assay type: functional
[3] = test system: Staphylococcus epidermidis; assay: Antibacterial activity against Staphylococcus epidermidis 845/19; assay type: functional
[4] = test system: Staphylococcus epidermidis; assay: Antibacterial activity against Staphylococcus epidermidis 840/19; assay type: functional
Staphylococcus aureus [5] = assay: Antibacterial activity against Staphylococcus aureus ATCC 25923; assay type: functional
[6] = test system: Staphylococcus epidermidis; assay: Antibacterial activity against Staphylococcus epidermidis 825/19; assay type: functional
[7] = test system: Staphylococcus epidermidis; assay: Antibacterial activity against Staphylococcus epidermidis ATCC 35984; assay type: functional
[8] = test system: Staphylococcus epidermidis; assay: Antibacterial activity against Staphylococcus epidermidis 848/19; assay type: functional
[9] = test system: Staphylococcus epidermidis; assay: Antibacterial activity against Staphylococcus epidermidis 830/19; assay type: functional
[10] = test system: Staphylococcus epidermidis; assay: Antibacterial activity against Staphylococcus epidermidis ATCC 12228; assay type: functional
[11] = test system: Staphylococcus epidermidis; assay: Antibacterial activity against Staphylococcus epidermidis 834/19; assay type: functional
Pseudomonas aeruginosa [12] = assay: Antibacterial activity against Pseudomonas aeruginosa ATCC 15442; assay type: functional
[13] = test system: Staphylococcus epidermidis; assay: Antibacterial activity against Staphylococcus epidermidis 851/19; assay type: functional
Staphylococcus aureus [14] = assay: Antibacterial activity against Staphylococcus aureus NCTC 4163; assay type: functional
Escherichia coli [15] = assay: Antibacterial activity against Escherichia coli NCTC 10538; assay type: functional
Trypanosoma brucei = assay: Antitrypanosomal activity against bloodstream form of Trypanosoma brucei clone 427-221a measured after 24 hrs by resazurin dye based assay; assay type: functional
HL-60 = assay: (§1) Cytotoxicity against human HL-60 cells assessed as reduction in cell viability measured after 24 hrs by resazurin dye based assay; assay type: toxicity; settings: hl-60, 24 h
[16] = as §1; assay type: toxicity; settings: HL-60 cells
[17] = Selectivity ratio of GI50 for cytotoxicity against human HL-60 cells to GI50 for antitrypanosomal activity against bloodstream form of Trypanosoma brucei clone 427-221a; assay type: toxicity, cell-based; settings: read-out: RatioGI50
Staphylococcus aureus [18] = assay: Antibacterial activity against Staphylococcus aureus ATCC 6538; assay type: functional
[19] = Selectivity ratio of MIC for cytotoxicity against human HL-60 cells to MIC for antitrypanosomal activity against bloodstream form of Trypanosoma brucei clone 427-221a; assay type: toxicity, cell-based
Escherichia coli [20] = assay: Antibacterial activity against Escherichia coli ATCC 25922; assay type: functional
Staphylococcus aureus [21] = assay: Antibacterial activity against Staphylococcus aureus ATCC 29213; assay type: functional

MIC (Pseudomonas aeruginosa [1]) [µg/mL] | MIC [2] [µg/mL] | MIC [3] [µg/mL] | MIC [4] [µg/mL] | MIC (Staphylococcus aureus [5]) [µg/mL] | MIC [6] [µg/mL] | MIC [7] [µg/mL] | MIC [8] [µg/mL] | MIC [9] [µg/mL] | MIC [10] [µg/mL] | MIC [11] [µg/mL] | MIC (Pseudomonas aeruginosa [12]) [µg/mL] | MIC [13] [µg/mL] | MIC (Staphylococcus aureus [14]) [µg/mL] | MIC (Escherichia coli [15]) [µg/mL] | GI50 (Trypanosoma brucei) [µM] | MIC (Trypanosoma brucei) [µM] | Structure (SMILES) | MIC (HL-60) [µM] | GI50 at 24 h [16] [µM] | selectivity ratio [17] | also measured
> 256 | 4 (≈ 5.05 µM) | 4 (≈ 5.05 µM) | 8 (≈ 10.1 µM) | 2 (≈ 2.52 µM) | 2 (≈ 2.52 µM) | 4 (≈ 5.05 µM) | 8 (≈ 10.1 µM) | 4 (≈ 5.05 µM) | 4 (≈ 5.05 µM) | 4 (≈ 5.05 µM) | > 256 | 4 (≈ 5.05 µM) | 2 (≈ 2.52 µM) | > 256 | 3.05 | 10 (≈ 7.92 µg/mL) | CO[C@H]([C@H](C)[C@H]1O[C@@]2(CC[C@@](C)([C@H]3CC[C@@](CO)([C@@H]4O[C@@H]([C@H]5O[C@@](O)(COC(=O)NCCCCl)[C@H](C)C[C@@H]5C)C[C@@H]4C)O3)O2)C[C@H](O)[C@H]1C)[C@H](C)C(=O)O | 100 (≈ 79.2 µg/mL) | 18.1 | 5.9 | MIC (Staphylococcus aureus [18]): 2 µg/mL (≈ 2.52 µM); selectivity ratio [19]: 10; MIC (Escherichia coli [20]): > 256 µg/mL; MIC (Staphylococcus aureus [21]): 4 µg/mL (≈ 5.05 µM)
> 256 | 1 (≈ 1.3 µM) | 2 (≈ 2.59 µM) | 2 (≈ 2.59 µM) | 1 (≈ 1.3 µM) | 1 (≈ 1.3 µM) | 1 (≈ 1.3 µM) | 2 (≈ 2.59 µM) | 1 (≈ 1.3 µM) | 1 (≈ 1.3 µM) | 2 (≈ 2.59 µM) | > 256 | 2 (≈ 2.59 µM) | 1 (≈ 1.3 µM) | > 256 | 0.47 | 10 (≈ 7.72 µg/mL) | CCCCNC(=O)OC[C@]1(O)O[C@H]([C@H]2C[C@H](C)[C@H]([C@]3(CO)CC[C@H]([C@]4(C)CC[C@]5(C[C@H](O)[C@@H](C)[C@@H]([C@@H](C)[C@@H](OC)[C@H](C)C(=O)O)O5)O4)O3)O2)[C@@H](C)C[C@H]1C | 100 (≈ 77.2 µg/mL) | 11.4 | 24.3 | MIC (Staphylococcus aureus [18]): 1 µg/mL (≈ 1.3 µM); selectivity ratio [19]: 19; MIC (Escherichia coli [20]): > 256 µg/mL; MIC (Staphylococcus aureus [21]): 2 µg/mL (≈ 2.59 µM)
> 256 | 4 (≈ 5.28 µM) | 4 (≈ 5.28 µM) | 4 (≈ 5.28 µM) | 2 (≈ 2.64 µM) | 2 (≈ 2.64 µM) | 8 (≈ 10.6 µM) | 4 (≈ 5.28 µM) | 4 (≈ 5.28 µM) | 4 (≈ 5.28 µM) | 4 (≈ 5.28 µM) | > 256 | 4 (≈ 5.28 µM) | 2 (≈ 2.64 µM) | > 256 | 2.94 | 10 (≈ 7.58 µg/mL) | CCCNC(=O)OC[C@]1(O)O[C@H]([C@H]2C[C@H](C)[C@H]([C@]3(CO)CC[C@H]([C@]4(C)CC[C@]5(C[C@H](O)[C@@H](C)[C@@H]([C@@H](C)[C@@H](OC)[C@H](C)C(=O)O)O5)O4)O3)O2)[C@@H](C)C[C@H]1C | 100 (≈ 75.8 µg/mL) | 24.5 | 8.3 | MIC (Staphylococcus aureus [18]): 2 µg/mL (≈ 2.64 µM); selectivity ratio [19]: 10; MIC (Escherichia coli [20]): > 256 µg/mL; MIC (Staphylococcus aureus [21]): 4 µg/mL (≈ 5.28 µM)
> 256 | 8 (≈ 10.8 µM) | 8 (≈ 10.8 µM) | 8 (≈ 10.8 µM) | 4 (≈ 5.38 µM) | 8 (≈ 10.8 µM) | 16 (≈ 21.5 µM) | 16 (≈ 21.5 µM) | 8 (≈ 10.8 µM) | 8 (≈ 10.8 µM) | 4 (≈ 5.38 µM) | > 256 | 16 (≈ 21.5 µM) | 8 (≈ 10.8 µM) | > 256 | 3.05 | 10 (≈ 7.44 µg/mL) | CCNC(=O)OC[C@]1(O)O[C@H]([C@H]2C[C@H](C)[C@H]([C@]3(CO)CC[C@H]([C@]4(C)CC[C@]5(C[C@H](O)[C@@H](C)[C@@H]([C@@H](C)[C@@H](OC)[C@H](C)C(=O)O)O5)O4)O3)O2)[C@@H](C)C[C@H]1C | 100 (≈ 74.4 µg/mL) | 85.8 | 28.1 | MIC (Staphylococcus aureus [18]): 8 µg/mL (≈ 10.8 µM); selectivity ratio [19]: 10; MIC (Escherichia coli [20]): > 256 µg/mL; MIC (Staphylococcus aureus [21]): 8 µg/mL (≈ 10.8 µM)

Structure (SMILES) | MIC (Pseudomonas aeruginosa [1]) [µg/mL] | MIC [2] [µg/mL] | MIC [3] [µg/mL] | MIC [4] [µg/mL] | MIC (Staphylococcus aureus [5]) [µg/mL] | MIC [6] [µg/mL] | MIC [7] [µg/mL] | MIC [8] [µg/mL] | MIC [9] [µg/mL] | MIC [10] [µg/mL] | MIC [11] [µg/mL] | MIC (Pseudomonas aeruginosa [12]) [µg/mL] | MIC [13] [µg/mL] | MIC (Staphylococcus aureus [14]) [µg/mL] | MIC (Escherichia coli [15]) [µg/mL] | GI50 (Trypanosoma brucei) [µM] | MIC (Trypanosoma brucei) [µM] | MIC (HL-60) [µM] | GI50 at 24 h [16] [µM] | selectivity ratio [17] | also measured
O=C(O)c1cn(C2CC2)c2cc(N3CCNCC3)c(F)cc2c1=O [CIPROFLOXACIN] | < 0.125 | ≤ 0.125 | 16 (≈ 48.3 µM) | ≤ 0.125 | 0.5 (≈ 1.51 µM) | 4 (≈ 12.1 µM) | 0.25 (≈ 0.754 µM) | ≤ 0.125 | 64 (≈ 193 µM) | 0.5 (≈ 1.51 µM) | ≤ 0.125 | < 0.125 | ≤ 0.125 | 0.25 (≈ 0.754 µM) | – | – | – | – | – | – | –
